The record followed here is ChEMBL document CHEMBL5442219.

Molecules are shown by their SMILES.

Common to all, as to settings: Compound concentration 10 µM
Assay [1] has as its target T1, Alpha-1A adrenergic receptor (Homo sapiens) (UniProt P35348).
T1 sequence (whole entry): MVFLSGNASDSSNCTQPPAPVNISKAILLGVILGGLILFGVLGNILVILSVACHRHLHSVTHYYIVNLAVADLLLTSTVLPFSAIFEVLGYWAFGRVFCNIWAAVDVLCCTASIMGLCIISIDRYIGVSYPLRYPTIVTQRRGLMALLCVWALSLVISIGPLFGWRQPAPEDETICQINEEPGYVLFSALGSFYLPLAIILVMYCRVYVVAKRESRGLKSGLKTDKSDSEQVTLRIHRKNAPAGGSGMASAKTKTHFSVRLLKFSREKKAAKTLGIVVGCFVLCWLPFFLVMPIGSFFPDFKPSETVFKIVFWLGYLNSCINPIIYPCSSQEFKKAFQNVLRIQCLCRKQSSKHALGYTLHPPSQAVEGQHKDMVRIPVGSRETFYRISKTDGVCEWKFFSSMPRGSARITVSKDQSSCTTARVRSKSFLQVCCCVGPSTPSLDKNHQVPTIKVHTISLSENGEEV
Description: PDSP Primary Binding target: ADRA1A - Compounds are tested at 10 uM concentration, plate are incubated at room temperature in the dark for 90 minutes. Reaction are stopped by vacuum filtration onto 0.3% polyethyleneimine soaked filter mats using Filtermate harvester. Scintilation cocktail is then melted onto microwave-dried filters on a hot plate and the radio activity is counted in Microbia counter.

In assay [2] the target is T2, Alpha-2C adrenergic receptor (Homo sapiens) (UniProt P18825).
T2 sequence (whole entry): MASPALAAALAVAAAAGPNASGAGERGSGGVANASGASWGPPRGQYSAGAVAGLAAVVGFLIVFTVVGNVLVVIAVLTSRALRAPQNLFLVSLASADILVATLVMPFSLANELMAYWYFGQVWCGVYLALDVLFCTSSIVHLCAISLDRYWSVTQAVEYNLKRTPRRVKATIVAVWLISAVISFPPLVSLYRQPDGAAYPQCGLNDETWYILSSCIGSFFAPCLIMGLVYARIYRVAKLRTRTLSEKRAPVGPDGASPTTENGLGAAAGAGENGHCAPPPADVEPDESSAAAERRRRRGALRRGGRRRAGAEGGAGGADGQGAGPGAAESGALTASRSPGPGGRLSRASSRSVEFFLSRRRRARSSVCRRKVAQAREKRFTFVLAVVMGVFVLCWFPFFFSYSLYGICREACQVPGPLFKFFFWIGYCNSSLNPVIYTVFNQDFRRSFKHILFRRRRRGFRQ
Description: PDSP Primary Binding target: ADRA2C - Compounds are tested at 10 uM concentration, plate are incubated at room temperature in the dark for 90 minutes. Reaction are stopped by vacuum filtration onto 0.3% polyethyleneimine soaked filter mats using Filtermate harvester. Scintilation cocktail is then melted onto microwave-dried filters on a hot plate and the radio activity is counted in Microbia counter.

For assay [3], the target named is D(1A) dopamine receptor (Homo sapiens) (UniProt P21728).
Description: PDSP Primary Binding target: DRD1 - Compounds are tested at 10 uM concentration, plate are incubated at room temperature in the dark for 90 minutes. Reaction are stopped by vacuum filtration onto 0.3% polyethyleneimine soaked filter mats using Filtermate harvester. Scintilation cocktail is then melted onto microwave-dried filters on a hot plate and the radio activity is counted in Microbia counter.
The target in assay [4] is D(2) dopamine receptor (Homo sapiens) (UniProt P14416).
Description: PDSP Primary Binding target: DRD2 - Compounds are tested at 10 uM concentration, plate are incubated at room temperature in the dark for 90 minutes. Reaction are stopped by vacuum filtration onto 0.3% polyethyleneimine soaked filter mats using Filtermate harvester. Scintilation cocktail is then melted onto microwave-dried filters on a hot plate and the radio activity is counted in Microbia counter.
Assay [5] addresses D(1B) dopamine receptor (Homo sapiens) (UniProt P21918).
Description: PDSP Primary Binding target: DRD5 - Compounds are tested at 10 uM concentration, plate are incubated at room temperature in the dark for 90 minutes. Reaction are stopped by vacuum filtration onto 0.3% polyethyleneimine soaked filter mats using Filtermate harvester. Scintilation cocktail is then melted onto microwave-dried filters on a hot plate and the radio activity is counted in Microbia counter.
Assay [6] concerns the target 5-hydroxytryptamine receptor 1B (Homo sapiens) (UniProt P28222).
Description: PDSP Primary Binding target: HTR1B - Compounds are tested at 10 uM concentration, plate are incubated at room temperature in the dark for 90 minutes. Reaction are stopped by vacuum filtration onto 0.3% polyethyleneimine soaked filter mats using Filtermate harvester. Scintilation cocktail is then melted onto microwave-dried filters on a hot plate and the radio activity is counted in Microbia counter.
Assay [7] deals with 5-hydroxytryptamine receptor 1E (Homo sapiens) (UniProt P28566).
Description: PDSP Primary Binding target: HTR1E - Compounds are tested at 10 uM concentration, plate are incubated at room temperature in the dark for 90 minutes. Reaction are stopped by vacuum filtration onto 0.3% polyethyleneimine soaked filter mats using Filtermate harvester. Scintilation cocktail is then melted onto microwave-dried filters on a hot plate and the radio activity is counted in Microbia counter.
The target of assay [8] is T3, 5-hydroxytryptamine receptor 3A (Homo sapiens) (UniProt P46098).
T3 sequence (whole entry): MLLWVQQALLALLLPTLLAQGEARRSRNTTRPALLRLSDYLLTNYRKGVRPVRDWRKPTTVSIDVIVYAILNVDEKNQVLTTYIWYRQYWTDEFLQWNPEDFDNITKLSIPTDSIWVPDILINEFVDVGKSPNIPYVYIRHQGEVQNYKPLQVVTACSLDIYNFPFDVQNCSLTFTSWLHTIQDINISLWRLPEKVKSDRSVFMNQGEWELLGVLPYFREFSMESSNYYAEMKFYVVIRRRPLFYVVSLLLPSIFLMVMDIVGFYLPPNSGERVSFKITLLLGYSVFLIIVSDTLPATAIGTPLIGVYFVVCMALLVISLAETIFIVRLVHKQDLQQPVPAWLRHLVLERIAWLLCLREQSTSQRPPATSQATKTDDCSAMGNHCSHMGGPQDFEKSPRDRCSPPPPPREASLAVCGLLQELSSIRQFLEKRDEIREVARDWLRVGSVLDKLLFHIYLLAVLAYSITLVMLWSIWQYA
Description: PDSP Primary Binding target: HTR3A - Compounds are tested at 10 uM concentration, plate are incubated at room temperature in the dark for 90 minutes. Reaction are stopped by vacuum filtration onto 0.3% polyethyleneimine soaked filter mats using Filtermate harvester. Scintilation cocktail is then melted onto microwave-dried filters on a hot plate and the radio activity is counted in Microbia counter.

Assay [9] addresses 5-hydroxytryptamine receptor 6 (Homo sapiens) (UniProt P50406).
Description: PDSP Primary Binding target: HTR6 - Compounds are tested at 10 uM concentration, plate are incubated at room temperature in the dark for 90 minutes. Reaction are stopped by vacuum filtration onto 0.3% polyethyleneimine soaked filter mats using Filtermate harvester. Scintilation cocktail is then melted onto microwave-dried filters on a hot plate and the radio activity is counted in Microbia counter.
Assay [10] deals with 5-hydroxytryptamine receptor 7 (Homo sapiens) (UniProt P34969).
Description: PDSP Primary Binding target: HTR7 - Compounds are tested at 10 uM concentration, plate are incubated at room temperature in the dark for 90 minutes. Reaction are stopped by vacuum filtration onto 0.3% polyethyleneimine soaked filter mats using Filtermate harvester. Scintilation cocktail is then melted onto microwave-dried filters on a hot plate and the radio activity is counted in Microbia counter.
Assay [11] deals with Delta-type opioid receptor (Homo sapiens) (UniProt P41143).
Description: PDSP Primary Binding target: OPRD1 - Compounds are tested at 10 uM concentration, plate are incubated at room temperature in the dark for 90 minutes. Reaction are stopped by vacuum filtration onto 0.3% polyethyleneimine soaked filter mats using Filtermate harvester. Scintilation cocktail is then melted onto microwave-dried filters on a hot plate and the radio activity is counted in Microbia counter.
The target in assay [12] is Kappa-type opioid receptor (Homo sapiens) (UniProt P41145).
Description: PDSP Primary Binding target: OPRK1 - Compounds are tested at 10 uM concentration, plate are incubated at room temperature in the dark for 90 minutes. Reaction are stopped by vacuum filtration onto 0.3% polyethyleneimine soaked filter mats using Filtermate harvester. Scintilation cocktail is then melted onto microwave-dried filters on a hot plate and the radio activity is counted in Microbia counter.
Assay [13] addresses Sigma non-opioid intracellular receptor 1 (Homo sapiens) (UniProt Q99720).
Description: PDSP Primary Binding target: SIGMAR1 - Compounds are tested at 10 uM concentration, plate are incubated at room temperature in the dark for 90 minutes. Reaction are stopped by vacuum filtration onto 0.3% polyethyleneimine soaked filter mats using Filtermate harvester. Scintilation cocktail is then melted onto microwave-dried filters on a hot plate and the radio activity is counted in Microbia counter.
Assay [14] deals with Sodium-dependent serotonin transporter (Homo sapiens) (UniProt P31645).
Description: PDSP Primary Binding target: SLC6A4 - Compounds are tested at 10 uM concentration, plate are incubated at room temperature in the dark for 90 minutes. Reaction are stopped by vacuum filtration onto 0.3% polyethyleneimine soaked filter mats using Filtermate harvester. Scintilation cocktail is then melted onto microwave-dried filters on a hot plate and the radio activity is counted in Microbia counter.
The target in assay [15] is Sigma intracellular receptor 2 (Homo sapiens) (UniProt Q5BJF2).
Description: PDSP Primary Binding target: TMEM97 - Compounds are tested at 10 uM concentration, plate are incubated at room temperature in the dark for 90 minutes. Reaction are stopped by vacuum filtration onto 0.3% polyethyleneimine soaked filter mats using Filtermate harvester. Scintilation cocktail is then melted onto microwave-dried filters on a hot plate and the radio activity is counted in Microbia counter.
The target in assay [16] is Histamine H3 receptor (Homo sapiens) (UniProt Q9Y5N1).
Description: PDSP Primary Binding target: HRH3 - Compounds are tested at 10 uM concentration, plate are incubated at room temperature in the dark for 90 minutes. Reaction are stopped by vacuum filtration onto 0.3% polyethyleneimine soaked filter mats using Filtermate harvester. Scintilation cocktail is then melted onto microwave-dried filters on a hot plate and the radio activity is counted in Microbia counter.
The target in assay [17] is 5-hydroxytryptamine receptor 2A (Homo sapiens) (UniProt P28223).
Description: PDSP Primary Binding target: HTR2A - Compounds are tested at 10 uM concentration, plate are incubated at room temperature in the dark for 90 minutes. Reaction are stopped by vacuum filtration onto 0.3% polyethyleneimine soaked filter mats using Filtermate harvester. Scintilation cocktail is then melted onto microwave-dried filters on a hot plate and the radio activity is counted in Microbia counter.
In assay [18] the target is Translocator protein (Homo sapiens) (UniProt P30536).
Description: PDSP Primary Binding target: TSPO - Compounds are tested at 10 uM concentration, plate are incubated at room temperature in the dark for 90 minutes. Reaction are stopped by vacuum filtration onto 0.3% polyethyleneimine soaked filter mats using Filtermate harvester. Scintilation cocktail is then melted onto microwave-dried filters on a hot plate and the radio activity is counted in Microbia counter.
In assay [19] the target is Beta-1 adrenergic receptor (Homo sapiens) (UniProt P08588).
Beta-1 adrenergic receptor (Homo sapiens), sequence (P08588 whole entry, looked up): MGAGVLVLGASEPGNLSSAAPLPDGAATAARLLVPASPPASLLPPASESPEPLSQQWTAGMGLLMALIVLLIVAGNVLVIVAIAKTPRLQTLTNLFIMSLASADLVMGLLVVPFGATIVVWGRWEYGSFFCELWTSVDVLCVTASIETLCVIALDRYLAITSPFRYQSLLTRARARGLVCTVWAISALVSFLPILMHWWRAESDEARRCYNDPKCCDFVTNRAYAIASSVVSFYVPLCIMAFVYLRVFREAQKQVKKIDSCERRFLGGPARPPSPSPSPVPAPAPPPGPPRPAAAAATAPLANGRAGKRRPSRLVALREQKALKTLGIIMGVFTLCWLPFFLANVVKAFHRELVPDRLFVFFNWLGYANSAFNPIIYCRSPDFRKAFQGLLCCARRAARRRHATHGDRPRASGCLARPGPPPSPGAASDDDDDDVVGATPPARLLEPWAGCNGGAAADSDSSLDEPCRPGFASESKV
Description: PDSP Primary Binding target: ADRB1 - Compounds are tested at 10 uM concentration, plate are incubated at room temperature in the dark for 90 minutes. Reaction are stopped by vacuum filtration onto 0.3% polyethyleneimine soaked filter mats using Filtermate harvester. Scintilation cocktail is then melted onto microwave-dried filters on a hot plate and the radio activity is counted in Microbia counter.

5-hydroxytryptamine receptor 2A (Homo sapiens), sequence (P28223 whole entry): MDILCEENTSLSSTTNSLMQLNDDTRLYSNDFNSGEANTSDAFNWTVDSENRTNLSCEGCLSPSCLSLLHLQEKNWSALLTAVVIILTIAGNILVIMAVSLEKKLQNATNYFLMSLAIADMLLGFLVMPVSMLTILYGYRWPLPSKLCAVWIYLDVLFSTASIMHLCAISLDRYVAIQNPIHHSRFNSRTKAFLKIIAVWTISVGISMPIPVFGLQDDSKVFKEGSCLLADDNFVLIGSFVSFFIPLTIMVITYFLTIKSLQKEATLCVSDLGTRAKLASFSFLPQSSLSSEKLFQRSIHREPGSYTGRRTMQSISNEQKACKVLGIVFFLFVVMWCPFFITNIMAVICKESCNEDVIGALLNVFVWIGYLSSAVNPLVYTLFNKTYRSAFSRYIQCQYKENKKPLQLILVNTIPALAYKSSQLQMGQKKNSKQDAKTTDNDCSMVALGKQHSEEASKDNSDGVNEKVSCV
Sigma non-opioid intracellular receptor 1 (Homo sapiens), sequence (Q99720 whole entry): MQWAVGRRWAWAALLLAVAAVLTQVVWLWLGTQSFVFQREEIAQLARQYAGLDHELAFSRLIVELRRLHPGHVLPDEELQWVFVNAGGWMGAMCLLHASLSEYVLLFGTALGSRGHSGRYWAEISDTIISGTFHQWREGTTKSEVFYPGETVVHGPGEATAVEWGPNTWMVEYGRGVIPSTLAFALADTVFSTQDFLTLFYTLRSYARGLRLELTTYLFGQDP
Sigma intracellular receptor 2 (Homo sapiens), sequence (Q5BJF2 whole entry): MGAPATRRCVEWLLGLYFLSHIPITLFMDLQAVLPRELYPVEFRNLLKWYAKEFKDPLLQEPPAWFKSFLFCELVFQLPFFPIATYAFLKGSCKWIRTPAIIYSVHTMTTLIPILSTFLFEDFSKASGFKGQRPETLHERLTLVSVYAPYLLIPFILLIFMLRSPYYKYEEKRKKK
5-hydroxytryptamine receptor 6 (Homo sapiens), sequence (P50406 whole entry): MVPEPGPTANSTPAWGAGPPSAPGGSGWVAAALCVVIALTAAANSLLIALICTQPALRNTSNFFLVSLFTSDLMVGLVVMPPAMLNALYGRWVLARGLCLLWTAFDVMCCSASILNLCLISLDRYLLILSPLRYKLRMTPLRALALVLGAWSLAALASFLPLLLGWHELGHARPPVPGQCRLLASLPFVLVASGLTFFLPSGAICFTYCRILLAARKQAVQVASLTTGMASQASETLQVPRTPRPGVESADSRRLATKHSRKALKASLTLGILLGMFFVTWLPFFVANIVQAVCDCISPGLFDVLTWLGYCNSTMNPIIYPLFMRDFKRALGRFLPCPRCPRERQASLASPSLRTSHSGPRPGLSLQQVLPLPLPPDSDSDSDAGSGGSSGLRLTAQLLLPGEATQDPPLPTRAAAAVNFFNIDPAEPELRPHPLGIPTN
D(1A) dopamine receptor (Homo sapiens), sequence (P21728 whole entry): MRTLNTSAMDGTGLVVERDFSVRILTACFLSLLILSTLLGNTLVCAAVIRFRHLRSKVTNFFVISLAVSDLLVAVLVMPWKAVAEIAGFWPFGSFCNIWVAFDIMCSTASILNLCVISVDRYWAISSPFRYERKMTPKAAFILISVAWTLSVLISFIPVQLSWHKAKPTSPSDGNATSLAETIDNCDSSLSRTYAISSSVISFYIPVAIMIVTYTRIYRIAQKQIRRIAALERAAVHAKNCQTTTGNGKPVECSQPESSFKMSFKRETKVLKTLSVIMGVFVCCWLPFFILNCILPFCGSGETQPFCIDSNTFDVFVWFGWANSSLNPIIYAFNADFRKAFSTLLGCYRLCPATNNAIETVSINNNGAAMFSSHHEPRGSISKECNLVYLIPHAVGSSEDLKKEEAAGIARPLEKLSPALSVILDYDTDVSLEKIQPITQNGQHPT
Histamine H3 receptor (Homo sapiens), sequence (Q9Y5N1 whole entry): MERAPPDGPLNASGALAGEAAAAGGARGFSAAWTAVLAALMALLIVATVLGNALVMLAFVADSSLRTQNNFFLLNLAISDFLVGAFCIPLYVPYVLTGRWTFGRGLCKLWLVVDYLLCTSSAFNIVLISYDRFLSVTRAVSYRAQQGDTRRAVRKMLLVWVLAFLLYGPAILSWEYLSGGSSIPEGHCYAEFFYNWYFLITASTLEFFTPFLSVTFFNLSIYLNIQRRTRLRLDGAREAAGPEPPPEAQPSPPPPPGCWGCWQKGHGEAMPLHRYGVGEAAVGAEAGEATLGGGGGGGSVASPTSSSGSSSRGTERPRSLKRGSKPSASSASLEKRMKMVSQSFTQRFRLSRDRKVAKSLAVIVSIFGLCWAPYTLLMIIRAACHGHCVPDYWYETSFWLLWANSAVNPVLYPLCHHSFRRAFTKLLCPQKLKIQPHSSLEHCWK
5-hydroxytryptamine receptor 1E (Homo sapiens), sequence (P28566 whole entry): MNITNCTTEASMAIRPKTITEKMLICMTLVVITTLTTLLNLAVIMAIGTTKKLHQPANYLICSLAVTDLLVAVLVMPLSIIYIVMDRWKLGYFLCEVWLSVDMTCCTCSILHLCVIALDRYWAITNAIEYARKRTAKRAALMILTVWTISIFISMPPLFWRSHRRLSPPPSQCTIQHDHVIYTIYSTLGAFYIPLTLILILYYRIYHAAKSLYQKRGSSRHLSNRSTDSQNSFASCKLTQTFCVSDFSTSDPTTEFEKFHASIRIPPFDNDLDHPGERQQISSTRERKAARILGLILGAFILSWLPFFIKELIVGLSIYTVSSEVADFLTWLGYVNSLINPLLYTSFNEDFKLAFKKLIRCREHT
Sodium-dependent serotonin transporter (Homo sapiens), sequence (P31645 whole entry, looked up): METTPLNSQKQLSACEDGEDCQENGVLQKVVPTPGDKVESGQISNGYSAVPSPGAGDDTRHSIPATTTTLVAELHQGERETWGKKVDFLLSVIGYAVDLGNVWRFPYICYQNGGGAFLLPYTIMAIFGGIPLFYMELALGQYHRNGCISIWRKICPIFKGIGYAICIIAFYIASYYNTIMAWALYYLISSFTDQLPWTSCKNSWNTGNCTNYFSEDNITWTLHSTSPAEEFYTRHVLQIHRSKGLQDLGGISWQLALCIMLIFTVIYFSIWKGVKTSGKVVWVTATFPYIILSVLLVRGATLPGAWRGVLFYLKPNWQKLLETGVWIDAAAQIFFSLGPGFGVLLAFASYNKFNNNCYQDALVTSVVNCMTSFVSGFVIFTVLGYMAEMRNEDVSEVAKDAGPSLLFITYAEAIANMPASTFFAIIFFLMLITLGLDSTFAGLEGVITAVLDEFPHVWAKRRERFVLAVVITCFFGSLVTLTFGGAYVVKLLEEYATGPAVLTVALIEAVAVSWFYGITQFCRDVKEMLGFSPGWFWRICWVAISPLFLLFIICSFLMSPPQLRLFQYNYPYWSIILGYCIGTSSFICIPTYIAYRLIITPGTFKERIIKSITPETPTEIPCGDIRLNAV
Delta-type opioid receptor (Homo sapiens), sequence (P41143 whole entry): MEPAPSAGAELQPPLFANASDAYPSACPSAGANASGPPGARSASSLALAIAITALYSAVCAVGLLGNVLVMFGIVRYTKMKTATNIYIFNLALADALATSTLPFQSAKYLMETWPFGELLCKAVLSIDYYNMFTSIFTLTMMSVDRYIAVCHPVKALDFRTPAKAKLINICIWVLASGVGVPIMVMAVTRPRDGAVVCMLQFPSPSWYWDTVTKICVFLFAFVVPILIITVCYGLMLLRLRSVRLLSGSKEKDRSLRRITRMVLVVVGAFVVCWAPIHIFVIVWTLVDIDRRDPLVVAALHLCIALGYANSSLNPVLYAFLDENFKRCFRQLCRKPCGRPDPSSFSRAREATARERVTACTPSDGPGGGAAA
5-hydroxytryptamine receptor 7 (Homo sapiens), sequence (P34969 whole entry): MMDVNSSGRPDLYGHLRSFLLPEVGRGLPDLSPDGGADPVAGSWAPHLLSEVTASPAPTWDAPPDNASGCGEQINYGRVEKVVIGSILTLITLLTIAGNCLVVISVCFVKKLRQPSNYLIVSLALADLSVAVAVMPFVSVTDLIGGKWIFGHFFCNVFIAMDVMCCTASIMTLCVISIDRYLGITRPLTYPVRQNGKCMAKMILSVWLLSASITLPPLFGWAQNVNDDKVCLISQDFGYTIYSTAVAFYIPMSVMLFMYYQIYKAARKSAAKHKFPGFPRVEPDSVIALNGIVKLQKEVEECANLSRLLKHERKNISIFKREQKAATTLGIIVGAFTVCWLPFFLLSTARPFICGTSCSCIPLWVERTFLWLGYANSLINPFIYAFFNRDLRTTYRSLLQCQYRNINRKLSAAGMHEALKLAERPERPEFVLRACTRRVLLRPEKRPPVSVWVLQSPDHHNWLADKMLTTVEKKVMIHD
Translocator protein (Homo sapiens), sequence (P30536 whole entry): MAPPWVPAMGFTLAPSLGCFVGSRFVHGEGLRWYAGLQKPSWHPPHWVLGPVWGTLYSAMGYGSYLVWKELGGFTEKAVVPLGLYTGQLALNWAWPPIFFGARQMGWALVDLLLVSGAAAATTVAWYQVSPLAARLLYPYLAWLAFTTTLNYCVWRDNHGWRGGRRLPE

With `Cc1nn(C)c(C)c1-c1cccc2c1CC[C@H](N(C)C)C2`, the inhibition was 15.3% in assay [1]; 45.4% in [2]; 19.8% in assay [3]; 32.7% in [4]; 26% in [5]; 91.5% in assay [6]. Further, the inhibition in [7] is 47.5%; in [8], 85.9%; in assay [9] it was -8.86%; in assay [10] it was 94.1%; in assay [11], -4.68%; in [12] it was 23.1%. Moreover, the inhibition in [13] is 102%; in assay [14] it was 3.62%; in [15], 79.1%.
As to `CS(=O)(=O)NC[C@H]1CC[C@H](Nc2nc3c(s2)CCSc2ccccc2-3)CC1`, the inhibition was -9.44% in [1]; 37.1% in assay [2]; 14.1% in assay [3]; 4.83% in assay [4]; -6.36% in assay [5]; -7.45% in [16]. Besides, the inhibition in [7] is 6.22%; in [17] it was 23.7%; in [8], 0.88%; in assay [9] it was 35%; in assay [10] it was 39.7%; in assay [11] it was 4.54%. For the same compound, the inhibition in [12] was -0.03%; in assay [13] it was 45.3%; in assay [14] it was 13.6%; in assay [15], 81.4%; in assay [18] it was 35.9%.
In the case of `N#Cc1c[nH]c2c(C(=O)N3CCN(CCc4ccc(F)cc4)CC3)cccc12`, the inhibition in assay [1] was -8.21%; in assay [2], 38.2%; in assay [19] it was 35.6%; in [3], 27.9%; in [4], 7.47%; in assay [5] it was 8.62%. Further, the inhibition was -0.43% in assay [16]; -5.18% in [6]; 27.3% in assay [7]; 100% in [17]; -8.41% in assay [8]; 37.8% in assay [9]. Besides, the inhibition in assay [10] was 50.6%; in [12], 7.51%; in assay [13] it was 87.6%; in assay [14], 60.4%; in [15], 68.2%.
As to `CCc1cc2c(cc1CC)CC(NC[C@H](O)c1ccc(O)c3[nH]c(=O)ccc13)C2`, the inhibition in assay [1] was 84.1%; in assay [2] it was 30%; in assay [19] it was 68%; in assay [3], 11.9%; in [4] it was -7.35%; in assay [5], 38.5%. Besides, the inhibition in [6] was 34.4%; in assay [7], -6.64%; in assay [17], 61.1%; in assay [8] it was -4.69%; in [10] it was -0.79%; in assay [11] it was 1.1%. Moreover, the figures for the inhibition in assay [13], in assay [14] and in assay [15] were -7.63%, 52.9% and 96.5%, respectively.
Take `Cc1ccc2c(c1)c1c(n2CCc2ccc(C)nc2)CCN(C)C1`: the inhibition in assay [1] was 88.6%; in assay [2], 73.6%; in assay [3], 39.2%; in assay [4] it was 57.8%; in assay [5] it was 32.6%; in assay [16], 16.2%. Besides, the inhibition in assay [6] is 74.3%; in assay [7] it was 56.9%; in [17] it was 84.6%; in assay [8], 21.6%; in assay [9], 90.6%; in assay [10], 90.7%. Also, the inhibition in [11] is 1.39%; in assay [12] it was 20%; in [13] it was 71.7%; in [14], -8.68%; in [15] it was 32.2%; in [18], 11.9%.
`Cc1cc(C)cc(-c2cnc3cc(Cl)c(-c4cccc(O)c4)cc3c2OCCCN)c1`: the inhibition in [1] is 28.4%; in assay [2] it was 68%; in assay [19], 19.6%; in [4], 37.3%; in assay [5], 72.9%; in [16] it was 10.6%. Also, the inhibition is 88.2% in assay [6]; 54.4% in [7]; 63.2% in [17]; 43.9% in assay [8]; 59% in assay [9]; 54.9% in assay [10]. Besides, the inhibition in assay [11] is 50.2%; in assay [12], 60.7%; in assay [13], 74.9%; in assay [14] it was 48.9%; in [15], 94.9%; in assay [18], 79.5%.
Turning to `Cc1ccccc1N1CCN(S(=O)(=O)C[C@]23CC[C@H](C[C@@H]2NC(=O)[C@@H](N)CCS(C)(=O)=O)C3(C)C)CC1`, the inhibition was 19.4% in assay [1]; 14.7% in assay [2]; 0.75% in assay [19]; 7.11% in [3]; -6.4% in assay [5]; -8.2% in assay [16]. Further, the inhibition in assay [6] is 18.8%; in [7] it was 19.7%; in assay [17], 1.52%; in [8] it was -6.48%; in assay [9] it was 0.91%; in [10], 25.6%. Further, the inhibition in [11] is 7.82%; in assay [12], 98.5%; in [13], 89.9%; in assay [14] it was -9.42%; in [15] it was 85%; in assay [18], -1.05%.
Take `CC(C)[C@H](CO)Nc1nc(Nc2cccc(Cl)c2)c2ncn(C(C)C)c2n1`: the inhibition in assay [1] was 1.19%; in assay [2], 28.4%; in [19], 29.9%; in assay [3] it was 20.4%; in assay [4], 11%; in assay [5] it was 8.79%. In addition, the inhibition in assay [6] was 38.1%; in assay [17], 41.8%; in assay [8], 25.4%; in [9] it was 52.3%; in [10] it was 11.4%; in assay [11] it was 5.89%. Further, the inhibition in assay [12] was 34.6%; in assay [13], 14.4%; in assay [14], 3.66%; in [15] it was 63.1%; in [18], 76.5%.
